# Reference: patent publication US12495818B2, “Dihydrochalcones from Balanophora harlandii” (The Coca-Cola Company, priority 2018, dated 2025)
# Test system: panelists
# Assay: Sweetness enhancement taste panel (Example 2)
# Assay type: in vivo, human
# Details: 20 ppm CC-00474 + 250 ppm Rebaudioside M in acidic water (citric acid) vs control of 250 ppm Rebaudioside M and PG; served cold, sip and spit; all panelists agreed
# Procedure: Samples were prepared with the following ingredients:
# CC-00474 in PG was prepared in weighing boat and added to Reb M solution while stirring. The weighing boat was rinsed with Reb M solution. The solution was stirred visibly clear and the sample was poured into a glass bottle and stored at 4° C.
# Bottles were removed from the refrigerator and about 25 ml of beverage was poured into 4 oz-plastic cups. Panelists were given mineral water to rinse their mouth before tasting and between tasting different samples. Unsalted crackers were also given to panelist to eat followed by rinsing their mouth with mineral water before tasting the next sample.
# A sample of Rebaudioside M in acidic water and a sample of CC-00474 and Rebaudioside M in acidic water were given to panelists. Panelists were asked to evaluate the sweetness of samples and describe the difference of taste profile. Panelists were instructed to sip, evaluate the sweetness, and then spit the samples in cups provided for that purpose.
compound,measurement,value
"COc1cc(CCC(=O)c2c(O)cc(O[C@@H]3OC(CO)[C@@H](O)[C@H](O)C3O)cc2O)ccc1O (stereo partly drawn) [CC-00474, 3-methoxyphloretin-4′-O-β-D-glucoside]",sweetness of the sample compared with Rebaudioside M only,sweeter than the sample containing Rebaudioside M only
